Like-named read-outs stand apart in the source and are kept apart here.
Key:
mu opiate receptor (MOR) = test: MOR agonist activity using [35S]GTPγS binding assay in striatal membranes; format: biochemical; conditions: for MOR agonist activity ([35S]GTPγS binding), FLNA-Binding Compound as Agonist 1 μM + BFNA: 1 μM compound + 1 μM β-funaltrexamine
Procedure, shortened: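 Striatal membranes (200 μg) were preincubated 5 min at 30 °C in HEPES pH 7.5 with 100 mM NaCl, 1 mM MgCl2 and 0.5 nM [35S]GTPγS, then 5 min more with 0.1–10 μM compound. Gαo was immunoprecipitated and bound radioactivity counted by scintillation.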

[1] = biological target: FLNA pentapeptide of SEQ ID NO: 1 (Bn-VAKGL) (Homo sapiens, UniProt P21333); test: FITC-NLX-based FLNA screening assay (inhibition of FITC-naloxone binding to Bn-VAKGL on streptavidin plates); conditions: 10 nM FITC-NLX
[2] = 0.1 μM compound relative to DAMGO
[3] = 1 μM compound + BFNA relative to DAMGO + BFNA
[4] = 1 μM compound relative to DAMGO
[5] = read-out: Percent Binding Inhibition, FLNA-binding compound 0.01 μM
[6] = read-out: Percent Binding Inhibition, FLNA-binding compound 0.1 μM
[7] = read-out: Percent Binding Inhibition, FLNA-binding compound 1 μM
[8] = Series C-1, 0.1 μM compound, relative to DAMGO
[9] = Series C-1, 0.1 μM compound, [35S]GTPγS binding to Gαo, striatal membranes
[10] = Series C-1, 1 μM compound + 1 μM β-FNA
[11] = Series C-1, 1 μM compound + β-FNA, relative to DAMGO + BFNA
[12] = Series C-1, 1 μM compound, relative to DAMGO
[13] = Series C-1, 1 μM compound, [35S]GTPγS binding to Gαo, striatal membranes
[14] = FLNA-binding compound 0.01 μM, read-out: Percent Binding Inhibition
[15] = FLNA-binding compound 0.1 μM, read-out: Percent Binding Inhibition
[16] = FLNA-binding compound 1 μM, read-out: Percent Binding Inhibition

Row | SMILES | MOR agonist activity ([35S]GTPγS binding), FLNA-Binding Compound as Agonist 0.1 μM (mu opiate receptor (MOR); 0.1 μM compound) | % DAMGO (0.1 μM) (mu opiate receptor (MOR); [2]) | MOR agonist activity ([35S]GTPγS binding), FLNA-Binding Compound as Agonist 1 μM (mu opiate receptor (MOR); 1 μM compound) | MOR agonist activity ([35S]GTPγS binding), FLNA-Binding Compound as Agonist 1 μM + BFNA (mu opiate receptor (MOR)) | % DAMGO + BFNA (mu opiate receptor (MOR); [3]) | % DAMGO (1 μM) (mu opiate receptor (MOR); [4]) | inhibition at 0.01 µM [1, 5] | inhibition at 0.1 µM [1, 6] | inhibition at 1 µM [1, 7] | inhibition at 0.01 µM [1, 14] | inhibition at 0.1 µM [1, 15] | inhibition at 1 µM [1, 16] | other results
1 | CC1CCC(C(C)C)C(OCC(O)CN2CCC(=O)CC2)C1 (stereo not drawn) [Compound A0060] | 99.7% | 63.9% | 158.2% | 14.3% | 35.8% | 68.6% | 32.4% | 39% | 42% |  |  |  | 
2 | O=S(=O)(c1ccc(F)c(F)c1)N1CCC2(CC1)OCCN2S(=O)(=O)c1ccc(F)c(F)c1 [Compound C0072] |  |  |  |  |  |  |  |  |  | 28.4% | 37.4% | 44% | % DAMGO (0.1 μM) (mu opiate receptor (MOR); [8]): 100.3%; Concentration of FLNA-Binding Compound as Agonist 0.1 μM (mu opiate receptor (MOR); [9]): 172.7%; Concentration of FLNA-Binding Compound as Agonist 1 μM + BFNA (mu opiate receptor (MOR); [10]): 67.1%; % DAMGO + BFNA (mu opiate receptor (MOR); [11]): 194.5%; % DAMGO (1 μM) (mu opiate receptor (MOR); [12]): 117.9%; Concentration of FLNA-Binding Compound as Agonist 1 μM (mu opiate receptor (MOR); [13]): 259.1%
3 | CCOC(=O)CN1CCC2(CC1)OCCN2S(=O)(=O)c1ccc(C(C)=O)cc1 [Compound C0099M] |  |  |  |  |  |  |  |  |  | 46.9% | 53.3% | 56% | % DAMGO (0.1 μM) (mu opiate receptor (MOR); Series C-2, 0.1 μM compound, relative to DAMGO): 93.8%; MOR agonist activity, percent [35S]GTPγS binding at the stated compound concentration (mu opiate receptor (MOR); Series C-2, 0.1 μM compound, [35S]GTPγS binding to Gαo, striatal membranes): 157.2%; MOR agonist activity, percent [35S]GTPγS binding at the stated compound concentration (mu opiate receptor (MOR); Series C-2, 1 μM compound + 1 μM β-FNA): 114.7%; % DAMGO + BFNA (mu opiate receptor (MOR); Series C-2, 1 μM compound + β-FNA, relative to DAMGO + BFNA): 241.5%; % DAMGO (1 μM) (mu opiate receptor (MOR); Series C-2, 1 μM compound, relative to DAMGO): 88.0%; MOR agonist activity, percent [35S]GTPγS binding at the stated compound concentration (mu opiate receptor (MOR); Series C-2, 1 μM compound, [35S]GTPγS binding to Gαo, striatal membranes): 195.7%
4 | COc1ccc(C(=O)CC2c3c(cc4c(c3OC)OCO4)CC[N+]2(C)C)cc1OC (stereo not drawn) [Compound B0026] |  |  |  |  |  |  | 41.1% | 43.3% | 48.2% |  |  |  | % DAMGO (0.1 μM) (mu opiate receptor (MOR); Series B, 0.1 μM compound, relative to DAMGO): 88.8%; MOR agonist activity, percent [35S]GTPγS binding at the stated compound concentration (mu opiate receptor (MOR); Series B, 0.1 μM compound, [35S]GTPγS binding to Gαo, striatal membranes): 152.0%; MOR agonist activity, percent [35S]GTPγS binding at the stated compound concentration (mu opiate receptor (MOR); Series B, 1 μM compound + 1 μM β-FNA): 28.8%; % DAMGO + BFNA (mu opiate receptor (MOR); Series B, 1 μM compound + β-FNA, relative to DAMGO + BFNA): 55.3%; % DAMGO (1 μM) (mu opiate receptor (MOR); Series B, 1 μM compound, relative to DAMGO): 87.4%; MOR agonist activity, percent [35S]GTPγS binding at the stated compound concentration (mu opiate receptor (MOR); Series B, 1 μM compound, [35S]GTPγS binding to Gαo, striatal membranes): 233.3%
5 | CC1CN(CC(O)COC2CCCCC2)CC(C)O1 (stereo not drawn) [Compound A0017] | 161.9% | 96.9% | 246.0% | 65.2% | 187.9% | 100.4% |  |  |  | 29.8% | 38.6% | 44% | 
6 | COc1c2c(cc3c1OCO3)CCN(CC(O)COC1CC(C)CCC1C(C)C)C2 (stereo not drawn) [Compound A0061] | 110.3% | 70.7% | 197.1% | 10.7% | 26.8% | 85.5% |  |  |  | 27.5% | 38.9% | 42.8% | 
7 | O=S(=O)(c1ccc(-c2ccccc2)cc1)N1CCC2(CC1)OCCN2S(=O)(=O)c1ccc(-c2ccccc2)cc1 [Compound C0010] |  |  |  |  |  |  | 39.8% | 42.7% | 47.1% |  |  |  | % DAMGO (0.1 μM) (mu opiate receptor (MOR); [8]): 80.7%; Concentration of FLNA-Binding Compound as Agonist 0.1 μM (mu opiate receptor (MOR); [9]): 136.5%; Concentration of FLNA-Binding Compound as Agonist 1 μM + BFNA (mu opiate receptor (MOR); [10]): 89.1%; % DAMGO + BFNA (mu opiate receptor (MOR); [11]): 135.0%; % DAMGO (1 μM) (mu opiate receptor (MOR); [12]): 114.9%; Concentration of FLNA-Binding Compound as Agonist 1 μM (mu opiate receptor (MOR); [13]): 307.0%
8 | COc1ccc(OCC(O)Cn2ccc3ccccc32)cc1 (stereo not drawn) [Compound A0077] | 300.1% | 170.5% | 334.7% | 103.5% | 470.5% | 132.3% |  |  |  | 41.1% | 48.7% | 49.4% | 
9 | OC(COc1cccc(C(F)(F)F)c1)CN1CCc2ccccc2C1 (stereo not drawn) [Compound A0054] | 74.9% | 44.4% | 159.2% | 114.1% | 348.9% | 63.9% |  |  |  | 28.7% | 35.8% | 41.4% | 

— US10363239B2, “Method for inhibiting growth of cancer cells” (Pain Therapeutics, Inc., priority 2013, dated 2019)
